Measured values published in patent US20070069122A1, “In situ polypeptide identification” (priority 2005, published 2007).

What was measured:
[1] = system: rat kidney cortex; assay: MALDI IMS profiling of rat kidney cortex thin sections, gentamicin-treated versus control; assay type: in vivo
Procedure: (§1) Animals were treated for 7 consecutive days with 100 mg/kg/day Gentamicin (dissolved in saline) or vehicle by subcutaneous (sc) injections and sacrificed 24 hours after the last application by CO2 inhalation. Immediately preceding sacrifice, terminal blood samples for clinical chemistry investigations were collected from the retroorbital sinus under isofluoran anesthesia.
Marked degeneration/regeneration of proximal tubules (grade 4) was clearly observed in rats treated with 100 mg/kg/day gentamicin for 7 days. This finding was correlated to the analysis of rat kidney thin sections by MALDI IMS. 9 control and 9 gentamicin-treated rat kidneys thin sections (3 animals, 3 sections from each animal; the thin section was spotted with matrix as shown in FIG. 1) were subjected to mass spectrometric analysis as described below.
Kidneys were dissected from rats, snap frozen on dry ice and stored at −80° C. prior to further processing. 12 μm sections were obtained on a cryostat (LEICA CM 3000, Leica Microsystems) at −18° C. and deposited on ITO-coated conductive glass slides (Indium Tin Oxide 50×75×0.9 mm, Delta Technologies). Sample preparation were performed according to published procedure (Schwartz, S. A., Reyzer, M. L., and Caprioli, R. M. (2003) Journal of Mass Spectrometry 38, 699-708). Tissue sections were then fixed by immersion in ethanol bathes and let to dry 30 minutes under vacuum. During all the process the sections were stored as much as possible under vacuum. Deposition of MALDI matrix was done manually with a pipette. 200 nL of freshly prepared sinapinic acid solution (3,5-dimethoxy-4-hydroxycinnaminic acid, Fluka, 20 mg/ml in water/acetonitrile 1:1, 0.1% trifluoroacetic acid) was deposited onto the tissue. After crystallization, an additional 200 nL was layered onto the spots and the matrix was let to dry at room temperature. The sample was then kept under vacuum if not analyzed immediately by mass spectrometry.
MALDI MS spectra were acquired using an UltraFlex MALDI ToF/ToF instrument (Bruker Daltonics) with a standard 337-nm N2 laser operating at 50Hz and a laser spot size of 50 μm. The instrument was operated in positive linear mode (2 kDa-30 kDa) at constant laser power. A total of 8 times 100 laser shots were averaged for each manually deposited matrix droplets. Spectra were externally calibrated using a protein calibration standard solution (Insulin, Ubiquitin I, Cytochrom C, Myoglobin; Bruker Daltonics). Internal calibration was performed post-acquisition using redundant known peaks from the spectra (Hemoglobin α-chain, Thymosin β-4, Cytochrome c oxidase polypeptide VIIa L, Ubiquitin, Cytochrome c oxidase polypeptide VIb).
The spectra were processed using a combination of tools available commercially and developed in-house at Vanderbilt University. Baseline subtraction, normalization, peak detection, and spectral alignment were performed using the ProTS-Data software (Efeckta Technologies, Inc.) All spectra were baseline corrected to remove contributions of chemical noise to the signal. This step was performed by locally estimating the baseline and subtracting the […] from the raw data. For the present data set the software was set to consider a window width 10 times that of the peak width to account for the differences in resolution for different m/z regions. The baseline corrected spectra were normalized in intensity by scaling the spectra to a common total ion current. Peak detection was performed using ProTS-Data and a list of 13 common peaks was selected to be internal alignment points using a quadratic calibration function. The criterion used to select common peaks were that the peak must occur in greater than 80% of the spectra to be aligned, must not have interfering or overlapping peaks, and the peaks must have a standard deviation of the observed centroid value less that 7 mass units. […]

[2] = system: kidney proximal tubules; assay: Histology of kidney after gentamicin treatment (model system for nephrotoxicity); assay type: in vivo, rat; conditions: rats, 100 mg/kg/day sc for 7 days
From the text: Permission for animal studies was obtained from the local regulatory agencies, and all study protocols were in compliance with animal welfare guidelines. Male HanBrl: Wistar rats of approximately 12 weeks of age (300g±20%) were obtained from BRL, Füllinsdorf, Switzerland. The animals were housed individually in Macrolone cages with wood shavings as bedding at […] and 50% relative humidity in a 12-hr light/dark rhythm with free access to water and Kliba 3433 rodent pellets (Provimi Kliba AG, Kaiseraugst, Switzerland).
as §1
Representative kidney samples were fixed in 10% neutral buffered formalin. All samples were processed using routine procedures and embedded in Paraplast. Tissue sections approximately 2-3 microns were cut and stained with hematoxylin-eosin (HE) or periodic acid-Schiff (PAS).
Marked degeneration/regeneration of proximal tubules (grade 4) was clearly observed in rats treated with 100 mg/kg/day gentamicin for 7 days. This finding was correlated to the analysis of rat kidney thin sections by MALDI IMS. […]

[3] = system: transthyretin (prealbumin); assay: Western blot of kidney cortex cytosolic fraction and HPLC fraction D10; assay type: in vivo, rat; conditions: kidney cortex cytosolic fraction
Procedure: Tissue extracts from control and treated rat kidneys were obtained by homogenization of a piece of cortex in a 10 mM Tris-HCl buffer pH 7.6 containing 250 mM sucrose and protease inhibitors (Roche Complete). The tissue extract was subjected to three successive centrifugation steps at 4° C. (10 min at 680 g; 10 min at 10 000 g; 1 h at 100 000 g) whereas the pellets were discarded and the supernatant of the last centrifugation step was kept as the kidney cytosolic fraction.
1 μl of the kidney cytosolic fraction and of the relevant HPLC fraction were subjected to electrophoresis using a 4-20% Tris-Glycine SDS-PAGE gel (Invitrogen) and the proteins were subsequently transferred to a PVDF membrane. Blots were blocked in 5% milk in PBS containing 0.1% Tween 20 for 1 h and incubated overnight at room temperature with an […] (Abcam) in PBS containing 5% milk and 0.1% Tween 20. After washing with PBS containing 0.1% Tween 20, blots were incubated for 1 h with horseradish peroxidase conjugated with an anti-sheep IgG antibody (Silenus Laboratories). Antibody binding was detected using ECL western blotting reagents (Amersham).

[4] = system: transthyretin; assay: Immunohistochemical examination of kidney; assay type: in vivo; conditions: treated versus control rat, whole kidney sections
From the text: FIG. 8: Immunohistochemical examination of kidney from control and gentamicin-treated rat. […] High magnification photomicrographs from the cortex (C, E) vs. the medulla (D, F) reveal specific localization of TTR immunoreactivity in the cortex tubules of the treated kidney. Transthyretin immunoreactivity is visualized by the grey precipitate of diaminobenzidine-Ni counterstained with cresyl violet.

[5] = kidney cortex, 100 mg/kg/day sc 7 days

Gentamicin
presence of species 12959 (transthyretin S28-Q146) in mass spectrum ([1]; in situ and in HPLC fraction D10): only present in the mass spectrum of the gentamicin-treated sample | doubly-charged species at m/z 6480, behaviour in treated versus control cortex ([1]; kidney cortex): showed a similar behavior | Average S/N (gent), peak m/z 3343.714 [1, 5]: 2 | Average S/N (gent), peak m/z 4010.498 [1, 5]: 1 | Average S/N (gent), peak m/z 4107.083 [1, 5]: 5 | Average S/N (gent), peak m/z 4141.907 [1, 5]: 1 | Average S/N (gent), peak m/z 4181.504 [1, 5]: 0 | Average S/N (gent), peak m/z 4497.792 [1, 5]: 0 | Average S/N (gent), peak m/z 5096.886 [1, 5]: 5 | Average S/N (gent), peak m/z 5222.249 [1, 5]: 0 | Average S/N (gent), peak m/z 5301.852 [1, 5]: 0 | Average S/N (gent), peak m/z 5355.669 [1, 5]: 1 | Average S/N (gent), peak m/z 5478.957 [1, 5]: 2 | Average S/N (gent), peak m/z 6080.035 [1, 5]: 1 | Average S/N (gent), peak m/z 6498.996 [1, 5]: 0 | Average S/N (gent), peak m/z 6912.956 [1, 5]: 6 | Average S/N (gent), peak m/z 6938.997 [1, 5]: 1 | Average S/N (gent), peak m/z 7083.364 [1, 5]: 6 | Average S/N (gent), peak m/z 12959.23 [1, 5]: 5 | Average S/N (gent), peak m/z 13004.71 [1, 5]: 0 | Average S/N (gent), peak m/z 17100.68 [1, 5]: 0 | Average S/N (gent), peak m/z 17176.83 [1, 5]: 0 | degeneration/regeneration of proximal tubules, grade [2]: 4 | transthyretin abundance in kidney by Western blot, gentamicin-treated versus control rats [3]: significantly more abundant | transthyretin immunoreactivity in kidney cortex [4]: high levels of transthyretin immunoreactivity
